Assay: Human HepG2 cell viability assay in 384 well format
Type: toxicity, cell-based
Set-up: dose 125 nL, time 70.5 hour; cytotoxicity at 70.5 h: concentration not given beside the values
Conditions: HepG2 cells, read-out: Inhibition

COc1cc(C)c(C2CC(=O)Nc3cc(NS(C)(=O)=O)ccc32)cc1C (stereo not drawn)
cytotoxicity at 70.5 h: 0.99%

CC(C)n1c2ccccc2c2c1cc(C(=O)N(C)C)n2S(C)(=O)=O
cytotoxicity at 70.5 h: 13.1%

Cc1cccc(N(C)Cc2nc3c(cnn3C)c(=O)[nH]2)c1C
cytotoxicity at 70.5 h: -10%

Cc1n[nH]c(C)c1CNc1nc(-c2ccco2)nc2c1CCNCC2
cytotoxicity at 70.5 h: 5.99%

COc1cccc(-n2c(C)cc(C(=O)NC(C)(C)C(N)=O)c2C)c1
cytotoxicity at 70.5 h: -15.2%

CC(C)[C@@H]1CN(c2ccc(F)cn2)C[C@H]1NS(C)(=O)=O
cytotoxicity at 70.5 h: 12.1%

CCc1nc(CN(C(C)=O)C2CCN(Cc3csc(C)n3)C2)no1 (stereo not drawn)
cytotoxicity at 70.5 h: -2.47%

CCc1n[nH]c(C2CN(C(=O)c3cnc[nH]3)CCO2)n1 (stereo not drawn)
cytotoxicity at 70.5 h: -15.6%

CCS(=O)(=O)c1ccc(N2CCC(NC(=O)CC3CCCC3)CC2)cc1
cytotoxicity at 70.5 h: -9.91%

CCCc1nc(CN(C)CC2CCN(CCO)CC2)no1
cytotoxicity at 70.5 h: 14.7%

CCOc1cc(CNC(C)c2ccc(F)cc2)ccn1 (stereo not drawn)
cytotoxicity at 70.5 h: 26.8%

Cc1nn(C)c(N(C)C)c1CNC(C)c1cccc(OC(C)C)c1 (stereo not drawn)
cytotoxicity at 70.5 h: -11.2%

CCN(CC)C(=O)Cn1ccc2cc(NC(C)=O)ccc21
cytotoxicity at 70.5 h: -3.27%

CN(Cc1n[nH]c(=O)n1Cc1ccccc1F)S(C)(=O)=O
cytotoxicity at 70.5 h: 5.65%

CS(=O)(=O)c1ccc(C(=O)N2CCCC(n3cncn3)C2)o1 (stereo not drawn)
cytotoxicity at 70.5 h: 21.1%

CN(C(=O)c1ccc(S(=O)(=O)NC(C)(C)C)cc1)C1(C#N)CCC1
cytotoxicity at 70.5 h: -17.4%

CN(C)S(=O)(=O)c1cccc(NC(=O)Cc2ccon2)c1
cytotoxicity at 70.5 h: -4.37%

COc1cc(OC)c(-c2nc3c([nH]2)c(C2CC2)nn3C)cc1OC
cytotoxicity at 70.5 h: -3.1%

N#Cc1cccc(CN2C[C@H](NC(=O)C3CC3)[C@H]3OCCC[C@H]32)c1
cytotoxicity at 70.5 h: -14%

CSCC[C@H](NC(=O)Cn1ccc2c(Cl)cccc21)C(=O)O
cytotoxicity at 70.5 h: -11.9%

CCn1cc(S(=O)(=O)N2CCC(C3CCCCN(C)C3=O)CC2)c(C)n1 (stereo not drawn)
cytotoxicity at 70.5 h: 7.12%

CCN1CC[C@@]2(C(=O)N(C)C)CCN(C(=O)NC(C)C)CC[C@@H]12
cytotoxicity at 70.5 h: -4.36%

CCCN(Cc1ccccc1O)S(=O)(=O)C(C)CC (stereo not drawn)
cytotoxicity at 70.5 h: -5.52%

O=C(NCc1ccncc1)C1=NOC2(CCCNC2)C1 (stereo not drawn)
cytotoxicity at 70.5 h: 14.2%

COc1ccc(C(=O)N2CCC(C3CCN(c4ncccn4)CC3)C2)o1 (stereo not drawn)
cytotoxicity at 70.5 h: 2.75%

CC(O)CN1CCN(Cc2csc(-c3cnn(C)c3)n2)CC1 (stereo not drawn)
cytotoxicity at 70.5 h: -9.86%

Cc1nn(C(C)C)c(C)c1NC(=O)Nc1cccnc1N1CCCC1
cytotoxicity at 70.5 h: -8.9%

Cc1nc(N2CCOCC2)nc2c1CN(C(=O)Cc1ccccn1)CC2
cytotoxicity at 70.5 h: -8.21%

CCOc1ccc(N(CCC#N)C(=O)c2ccnc(SC)c2)cc1
cytotoxicity at 70.5 h: 9.66%

CCCSc1ccccc1NC(=O)N1CCC(N2CCSCC2)CC1
cytotoxicity at 70.5 h: 0.648%

CC(C)CN1C[C@H]2CCN(C(=O)c3ccccn3)CC[C@H]2S1(=O)=O
cytotoxicity at 70.5 h: -4.38%

CC(CNC(=O)c1ccco1)N1CCc2sccc2C1 (stereo not drawn)
cytotoxicity at 70.5 h: -4.45%

CN(C(=O)NCC1(CN2CCOCC2)CCCCC1)C1CC1
cytotoxicity at 70.5 h: -4.71%

CC(=O)N(Cc1noc(C2CC2)n1)C1CCN(Cc2nccn2C)C1 (stereo not drawn)
cytotoxicity at 70.5 h: -5.66%

O[C@H]1CN(c2nc(-c3ccccc3)no2)C[C@@H]1N1CCOCC1
cytotoxicity at 70.5 h: 6.13%

CN(Cc1noc2c1CCCC2)C(=O)Cn1c(=O)cnc2ccccc21
cytotoxicity at 70.5 h: -12.8%

Cn1cc(-c2cc(-c3cnn(C)c3)n(CC(=O)NC3CC3)n2)cn1
cytotoxicity at 70.5 h: -20.4%

COc1c(C)cnc(CN2CCOC(Cn3nc(C)cc3C)C2)c1C (stereo not drawn)
cytotoxicity at 70.5 h: -2.15%

CS(=O)(=O)NCC1Cc2ccccc2O1 (stereo not drawn)
cytotoxicity at 70.5 h: -0.512%

COc1c(CNCc2nnc3n2CCCCC3)c(C(C)C)nn1C
cytotoxicity at 70.5 h: -4.88%

COC(=O)CC(NC(=O)c1ccc(OC)cc1OC)c1cccs1 (stereo not drawn)
cytotoxicity at 70.5 h: -11.2%

Cn1ccnc1C(O)c1ccccc1N1CCN(CC2CCCC2)CC1 (stereo not drawn)
cytotoxicity at 70.5 h: -3.89%

O=C1CCCN1Cc1ncn2c1CN(S(=O)(=O)c1cccs1)CCC2
cytotoxicity at 70.5 h: -1.28%

O=C1CN(Cc2nnc(-c3ccccc3Br)o2)CCN1
cytotoxicity at 70.5 h: -6.27%

CCCN1CCN(C(=O)c2cc[nH]n2)[C@H]2CS(=O)(=O)C[C@H]21
cytotoxicity at 70.5 h: -11.3%

c1ccc(CN2CCc3c(COCc4ccncc4)cncc3C2)nc1
cytotoxicity at 70.5 h: -4.58%

O=C(NCC1(O)COCCN(Cc2cccc(O)c2)C1)c1ccccn1 (stereo not drawn)
cytotoxicity at 70.5 h: -5.55%

CC(C)CN1CCc2[nH]cnc2C12CCN(C(=O)c1ccccn1)CC2
cytotoxicity at 70.5 h: -3.63%

COCC(=O)N1CCOC(c2cccc(-c3cncnc3)n2)C1 (stereo not drawn)
cytotoxicity at 70.5 h: -5.56%

CC(C)NC(=O)C1CCN(c2nc3nc[nH]c(=O)c3s2)CC1
cytotoxicity at 70.5 h: -21.7%

CC(C)CNC(=O)[C@H]1C[C@@H]2CN(C(=O)Nc3ccc(F)cc3)C[C@H]1O2
cytotoxicity at 70.5 h: -26.4%

O=c1cc2c(nn1CN1CCN(c3ccc(F)cc3)CC1)CCC2
cytotoxicity at 70.5 h: -13.2%

Cc1cc2cc(Nc3c(C#N)c(=O)n(C)c(=O)n3C)ccc2[nH]1
cytotoxicity at 70.5 h: -5.45%

CC(C)[C@H](NC(=O)c1cccc(CCC(C)(C)O)c1)C(N)=O
cytotoxicity at 70.5 h: -2.04%

CN1CC(Nc2nc3c(cnn3-c3ccccc3)c(=O)[nH]2)CCC1=O (stereo not drawn)
cytotoxicity at 70.5 h: -10.2%

COc1ccc(Br)cc1SCCC(N)=O
cytotoxicity at 70.5 h: -0.68%

CC1CN(Cc2cc(C#N)ccc2F)CCN1Cc1nccn1C (stereo not drawn)
cytotoxicity at 70.5 h: -3.5%

O=C(CC1CCN(c2ncnc3ccccc23)CC1)N1CCCC1
cytotoxicity at 70.5 h: -6.95%

Cc1[nH]ncc1CCCNC(=O)Nc1ccccc1
cytotoxicity at 70.5 h: 14.5%

CCCc1nc(C)c(CNc2nc(C)nc3onc(C)c23)s1
cytotoxicity at 70.5 h: 2.81%

CCCc1cc(N2CCC(NCC3(O)CCCCC3)CC2)nc(C)n1
cytotoxicity at 70.5 h: -8.99%

COc1cccc(OC)c1C(=O)N1CCN(c2ccccc2F)CC1
cytotoxicity at 70.5 h: 39%

COCc1ncc(CN(Cc2ccco2)C(C)C(C)C)cn1 (stereo not drawn)
cytotoxicity at 70.5 h: -15.5%

CCCNC(=O)C[S+]([O-])Cc1csc(C2CCCCC2)n1 (stereo not drawn)
cytotoxicity at 70.5 h: -10.9%

COc1ccsc1C(=O)NC1CCN(c2cccc(F)c2)CC1
cytotoxicity at 70.5 h: 21.7%

COc1cccc(-c2cc(C(=O)NCCn3nc(C)nc3C)[nH]n2)c1
cytotoxicity at 70.5 h: -7.22%

COC(=O)c1cc(NCC(=O)NC(N)=O)cc(C(F)(F)F)c1
cytotoxicity at 70.5 h: 0.625%

O=S(=O)(Cc1cccc(Cl)c1)CC(O)Cn1cccn1 (stereo not drawn)
cytotoxicity at 70.5 h: -5.5%

Cc1ccc(-c2nnc(CN3CCOCC(CO)C3)o2)n1C (stereo not drawn)
cytotoxicity at 70.5 h: -3.57%

Fc1cccc(N2CCc3ncnc(C4CC4)c3CC2)c1
cytotoxicity at 70.5 h: -4.85%

COC1CCCOC12CCN(C(=O)c1ccc3[nH]nnc3c1)CC2 (stereo not drawn)
cytotoxicity at 70.5 h: -5.57%

N#Cc1cc(S(N)(=O)=O)ccc1NC1CCc2ccc(F)cc21 (stereo not drawn)
cytotoxicity at 70.5 h: 7.54%

COc1cccc2c1CCN(C(=O)NCCc1nccn1C)C2
cytotoxicity at 70.5 h: -1.05%

O=C(Nc1ccccc1OC(F)F)C1=NN(c2ccccc2)C(=O)CN1
cytotoxicity at 70.5 h: -8.48%

Cc1cc(C)c(CNC(=O)NCCNc2ccccn2)c(=O)[nH]1
cytotoxicity at 70.5 h: -9.53%

Cc1cnn(CC2CN(c3ccc(C#N)cn3)CCO2)c1 (stereo not drawn)
cytotoxicity at 70.5 h: 23.6%

CN1CCN(c2ncccn2)CC1C(N)=O (stereo not drawn)
cytotoxicity at 70.5 h: 36.7%

COc1cccc([C@@H]2CCN(Cc3cccc(C)n3)C[C@H]2O)c1
cytotoxicity at 70.5 h: -9.27%

Clc1cc(CN2CCCC2Cn2cncn2)c2ncccc2c1 (stereo not drawn)
cytotoxicity at 70.5 h: -20.8%

CC(=O)Nc1nc(C2CN(C(=O)C3CCC3)C2)cs1
cytotoxicity at 70.5 h: -7.1%

Cc1nn(C)c(N(C)C)c1CNC1CCc2c(Cl)cccc21 (stereo not drawn)
cytotoxicity at 70.5 h: -1.83%

c1cncc(C2COC3(CCN(Cc4cccs4)CC3)C2)c1 (stereo not drawn)
cytotoxicity at 70.5 h: -6.54%

CC(C)c1nc(CN(C)C2CCN(CCc3ccncc3)C2)no1 (stereo not drawn)
cytotoxicity at 70.5 h: -2.44%

CC(C)CN(C(=O)Nc1cccc(C(=O)N(C)C)c1)C1CC1
cytotoxicity at 70.5 h: -10.3%

CC(C)NC(=O)NCCCc1cc(N)n(-c2ccccc2)n1
cytotoxicity at 70.5 h: 15.9%

Cc1cc(C(=O)N2CCN(C)CC2)nn1CC(=O)NCc1ccccn1
cytotoxicity at 70.5 h: -8.07%

O=S(=O)(NC1CCCCC12OCCO2)c1cc(Cl)cc(Cl)c1 (stereo not drawn)
cytotoxicity at 70.5 h: -3.17%

O=C(CC1CCCO1)NCc1ccccc1Cn1cncn1 (stereo not drawn)
cytotoxicity at 70.5 h: -3.75%

CNC(=O)N1C[C@H]2CC[C@@]3(N=C(c4ccccc4)NC3=O)[C@H]2C1
cytotoxicity at 70.5 h: -6.95%

CCn1cnnc1CNC(=O)N1CCN(CC(C)C)CC1
cytotoxicity at 70.5 h: -1.52%

Cc1ccc(CN2CCc3[nH]nc(C(=O)N4CCNC(=O)C4)c3C2)s1
cytotoxicity at 70.5 h: 3.82%

Cc1ccc(NC(=O)N2CCCC(N(C)C)C2)c(Br)c1 (stereo not drawn)
cytotoxicity at 70.5 h: -3.97%

Cc1nc(C)n(CC2CCCCN2c2ncnc3ccsc23)n1 (stereo not drawn)
cytotoxicity at 70.5 h: -11.9%

O=C(NCc1ccccc1)N1CCC2(CC(=O)N(c3ccsc3)C2)C1 (stereo not drawn)
cytotoxicity at 70.5 h: -2.89%

CCn1c(CN(C)Cc2cnc(C)s2)nc2c(F)cccc21
cytotoxicity at 70.5 h: -24.5%

CC(C)n1ccnc1C1CCCN(c2nc3ccccc3s2)C1 (stereo not drawn)
cytotoxicity at 70.5 h: 2.12%

Cc1c(C(C)NC(=O)C2CCCCC2)cnn1C (stereo not drawn)
cytotoxicity at 70.5 h: 5.03%

O=c1[nH]c(-c2ccncc2)ncc1-c1ccnc(NC2CCCCC2)n1
cytotoxicity at 70.5 h: 18.2%

Cc1ccc(OCC(=O)NCC(F)(F)F)nc1
cytotoxicity at 70.5 h: -4.18%

Cn1ccc(C(=O)N2CCCC2c2cc(CO)[nH]n2)n1 (stereo not drawn)
cytotoxicity at 70.5 h: -2.72%

CC(C)Oc1ncnc2c1CCN(Cc1ccoc1)CC2
cytotoxicity at 70.5 h: -0.464%

O=C(c1ccsc1)N1CCCC(c2cc(C(F)(F)F)[nH]n2)C1 (stereo not drawn)
cytotoxicity at 70.5 h: 11.1%

COc1cc(Cl)c(C)cc1-n1nnc(C(=O)O)c1C
cytotoxicity at 70.5 h: -2%

O=C(Nc1nccs1)N(CCO)Cc1ccsc1
cytotoxicity at 70.5 h: 1.52%

CCCNC(=O)c1cc2c(s1)CCN2c1ncccn1
cytotoxicity at 70.5 h: 3.12%

CCCN1CCN(C(=O)c2cccc(C)n2)[C@H]2CS(=O)(=O)C[C@H]21
cytotoxicity at 70.5 h: 14.2%

CC(CCc1ccccc1)NC(=O)Nc1cnn(CC(N)=O)c1 (stereo not drawn)
cytotoxicity at 70.5 h: -2.53%

Cc1n[nH]c(C)c1CC(=O)N1CC[C@@](C)(O)[C@@H](Cc2ccccc2)C1
cytotoxicity at 70.5 h: -16.1%

Cc1ccc(-c2nc(CN3CCC(N4CCNC4=O)CC3)co2)cc1
cytotoxicity at 70.5 h: -0.587%

CC(C)c1nc(CN(C)C(=O)c2ccc3c(c2)OCC(=O)N3)cs1
cytotoxicity at 70.5 h: -6.75%

CC1(C)CN=C(N2CCN(CC3CCCO3)CC2)S1 (stereo not drawn)
cytotoxicity at 70.5 h: -7.36%

Nc1ccc(C(=O)N2CCC(Oc3cccc(C(F)(F)F)c3)CC2)cn1
cytotoxicity at 70.5 h: -0.861%

Cc1nnsc1C(=O)N1CCCCC1c1cc2nc(C)c(C)c(O)n2n1 (stereo not drawn)
cytotoxicity at 70.5 h: -2.13%
